According to ChEMBL document CHEMBL1201862, “PubChem BioAssay data set” (2004):
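Grown in 96-well plates, cells were treated for 48 hours with each compound at five concentrations. Insufficient inhibition: endpoint recorded as highest concentration tested. GI50 marks 50% less growth.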 Calls of active or inactive are those of the source. Cut-off read from the data, not from the text of the source: active = GI50 up to about 1.1 µM and inactive = higher.

Assays:
Test in all cases: NCI anticancer screen, dose series, 48 h
[1] = tested on: SN12C
[2] = tested on: RXF 393
[3] = tested on: SK-MEL-28
[4] = tested on: TK-10
[5] = tested on: BT-549
[6] = tested on: M14
[7] = tested on: SNB-75
[8] = tested on: MDA-MB-231
[9] = tested on: U-251
[10] = tested on: MDA-MB-435
[11] = tested on: RPMI-8226
[12] = tested on: HCT-15
[13] = tested on: NCI/ADR-RES
[14] = tested on: IGROV-1
[15] = tested on: SK-OV-3
[16] = tested on: SR
[17] = tested on: HL-60
[18] = tested on: LOX IMVI
[19] = tested on: CAKI-1

| Structure (SMILES) | GI50 [1] | GI50 [2] | GI50 [3] | GI50 [4] | GI50 [5] | GI50 [6] | GI50 [7] | GI50 [8] | GI50 [9] | GI50 [10] | GI50 [11] | GI50 [12] [µM] | GI50 [13] | GI50 [14] | GI50 [15] | GI50 [16] | GI50 [17] | GI50 [18] | GI50 [19] |
| --- | --- | --- | --- | --- | --- | --- | --- | --- | --- | --- | --- | --- | --- | --- | --- | --- | --- | --- | --- |
| O=C(Cc1ccccc1)NN1C(=O)/C(=C\c2ccccc2O)S/C1=N\c1ccccc1 | > 100 µM (inactive) | > 100 µM (inactive) | > 100 µM (inactive) | > 100 µM (inactive) | > 100 µM (inactive) | > 100 µM (inactive) | > 100 µM (inactive) | > 100 µM (inactive) | > 100 µM (inactive) | > 100 µM (inactive) | > 100 µM (inactive) | > 100 | > 100 µM (inactive) | > 100 µM (inactive) | > 100 µM (inactive) |  |  |  |  |
| SC1=C2CCCCCC2=NC2(CCCCCC2)S1 | 37.3 µM (inactive) | 32.6 µM (inactive) | 72.9 µM (inactive) | 24.7 µM (inactive) |  | 35.2 µM (inactive) | 19.2 µM (inactive) | 36.6 µM (inactive) | 32 µM (inactive) | 30.5 µM (inactive) | 18.5 µM (inactive) | 37.1 | 26.5 µM (inactive) | 44.1 µM (inactive) | 62.8 µM (inactive) | 15.6 µM (inactive) | 12.1 µM (inactive) | 29.4 µM (inactive) | 31.5 µM (inactive) |
| Cc1sc2ccccc2[n+]1CCC(=O)O | > 100 µM (inactive) | > 100 µM (inactive) | > 100 µM (inactive) | > 100 µM (inactive) | > 100 µM (inactive) | > 100 µM (inactive) | > 100 µM (inactive) | > 100 µM (inactive) | > 100 µM (inactive) | > 100 µM (inactive) | > 100 µM (inactive) | > 100 | > 100 µM (inactive) | > 100 µM (inactive) | > 100 µM (inactive) |  | 11.5 µM (inactive) | > 100 µM (inactive) | > 100 µM (inactive) |
| O=C1[C@H]2ON(c3ccccc3)C(c3ccccc3)[C@H]2C(=O)N1c1ccc(Cc2ccc(N3C(=O)[C@@H]4ON(c5ccccc5)C(c5ccccc5)[C@@H]4C3=O)cc2)cc1 (some centres undefined) | > 100 µM (inactive) | 88.1 µM (inactive) | > 100 µM (inactive) |  |  | > 100 µM (inactive) | > 100 µM (inactive) |  | > 100 µM (inactive) |  | > 100 µM (inactive) | > 100 |  | > 100 µM (inactive) | > 100 µM (inactive) |  | > 100 µM (inactive) | > 100 µM (inactive) | > 100 µM (inactive) |
| CC(=O)C(C(C)=O)=C1CCCC(O)O1 (centres undefined) | > 100 µM (inactive) | > 100 µM (inactive) | > 100 µM (inactive) | > 100 µM (inactive) |  | > 100 µM (inactive) | > 100 µM (inactive) | > 100 µM (inactive) | > 100 µM (inactive) | > 100 µM (inactive) | > 100 µM (inactive) | > 100 | > 100 µM (inactive) | > 100 µM (inactive) | > 100 µM (inactive) | 62.2 µM (inactive) | > 100 µM (inactive) |  |  |
| CC(C)NC(=O)N(Nc1ccccc1)C(C)(C)C | > 100 µM (inactive) | > 100 µM (inactive) | > 100 µM (inactive) | > 100 µM (inactive) | > 100 µM (inactive) | > 100 µM (inactive) | 73.8 µM (inactive) | > 100 µM (inactive) | > 100 µM (inactive) |  |  | > 100 | > 100 µM (inactive) | > 100 µM (inactive) | > 100 µM (inactive) | > 100 µM (inactive) | 37.2 µM (inactive) | > 100 µM (inactive) | > 100 µM (inactive) |
| COc1cccc(/C=N/n2c(Cc3ccccc3)n[nH]c2=O)c1 | > 19.7 µM (inactive) | 11.2 µM (inactive) | > 100 µM (inactive) | > 100 µM (inactive) | > 100 µM (inactive) | > 100 µM (inactive) | 29.4 µM (inactive) | > 100 µM (inactive) | > 100 µM (inactive) | > 100 µM (inactive) | > 100 µM (inactive) | > 100 | > 31.9 µM (inactive) |  | > 100 µM (inactive) |  |  | 48.9 µM (inactive) | > 47.4 µM (inactive) |
| CC(NC1=NCCO1)c1ccco1 (centres undefined) | > 100 µM (inactive) | > 100 µM (inactive) | > 100 µM (inactive) | > 100 µM (inactive) |  | > 100 µM (inactive) |  | > 100 µM (inactive) | > 100 µM (inactive) | > 100 µM (inactive) | > 100 µM (inactive) | > 100 | > 100 µM (inactive) | > 100 µM (inactive) | > 100 µM (inactive) | 75.9 µM (inactive) | > 100 µM (inactive) | > 100 µM (inactive) | > 100 µM (inactive) |
| CC1=NN(c2nc(N)nc(/C(C#N)=C\C3COc4ccccc4C3=O)n2)C(C)(C)C1 (centres undefined) |  | 16.4 µM (inactive) | 21.6 µM (inactive) | 27.6 µM (inactive) |  | 23.7 µM (inactive) |  | 30.1 µM (inactive) | 24.5 µM (inactive) | 32.1 µM (inactive) | 17.7 µM (inactive) | 22.9 | 15.9 µM (inactive) | 32.7 µM (inactive) | 25.8 µM (inactive) | 17.6 µM (inactive) | 0.0404 µM (active) | 27.2 µM (inactive) | 23.6 µM (inactive) |
| CCOC(=O)Cc1csc(NC(NC(=O)OCC)(C(=O)OCC)C(F)(F)F)n1 (centres undefined) | > 100 µM (inactive) | > 100 µM (inactive) | > 100 µM (inactive) | > 100 µM (inactive) |  | > 100 µM (inactive) | > 100 µM (inactive) | > 100 µM (inactive) | > 100 µM (inactive) | > 100 µM (inactive) | > 100 µM (inactive) | > 100 | > 100 µM (inactive) | > 100 µM (inactive) | > 100 µM (inactive) | > 100 µM (inactive) | > 100 µM (inactive) | > 100 µM (inactive) | > 100 µM (inactive) |
| C[C@H](NC(=O)C(Cc1ccccc1)(Cc1ccc(O)cn1)NC(=O)c1ccccc1)c1ccccc1 (some centres undefined) | 16.9 µM (inactive) | 14.3 µM (inactive) | 18.5 µM (inactive) | 29.9 µM (inactive) | 18.1 µM (inactive) | 15.3 µM (inactive) |  | 15.6 µM (inactive) | 15.3 µM (inactive) | 16.5 µM (inactive) | 21.1 µM (inactive) | 18 | 17.4 µM (inactive) | 16.3 µM (inactive) |  |  | 25.1 µM (inactive) | 14.8 µM (inactive) | 26.9 µM (inactive) |
| O=C(O/C=C\OC1CCCC1(c1ccccc1)c1ccccc1)c1ccccc1 (centres undefined) | 3.95 µM (inactive) | 2.49 µM (inactive) | 5.71 µM (inactive) | 5.01 µM (inactive) | 2.12 µM (inactive) | 2.79 µM (inactive) | 3.83 µM (inactive) | 2.51 µM (inactive) | 3.66 µM (inactive) |  | 2.61 µM (inactive) | 2.23 | 2.88 µM (inactive) | 2.6 µM (inactive) | 16.5 µM (inactive) | 2.17 µM (inactive) | 1.84 µM (inactive) | 1.67 µM (inactive) | > 46.1 µM (inactive) |
| C/C(CC(O)(C(F)(F)F)C(F)(F)F)=N\NC(N)=O | > 10 µM (inactive) | > 10 µM (inactive) | > 10 µM (inactive) | > 10 µM (inactive) |  | > 10 µM (inactive) | > 10 µM (inactive) | > 10 µM (inactive) | > 10 µM (inactive) | > 10 µM (inactive) | > 10 µM (inactive) | > 10 | > 10 µM (inactive) | > 10 µM (inactive) | > 10 µM (inactive) | > 10 µM (inactive) | > 10 µM (inactive) | > 10 µM (inactive) | > 10 µM (inactive) |
| CCCCSC1=N/C(=C\c2ccc(N(C)C)cc2)C(NN)=N1 | > 100 µM (inactive) | > 100 µM (inactive) | > 100 µM (inactive) | > 100 µM (inactive) | > 100 µM (inactive) | > 100 µM (inactive) | > 100 µM (inactive) | > 100 µM (inactive) | > 100 µM (inactive) | > 100 µM (inactive) | > 100 µM (inactive) | > 100 | > 100 µM (inactive) | > 100 µM (inactive) | > 100 µM (inactive) |  | > 100 µM (inactive) | > 100 µM (inactive) | > 100 µM (inactive) |
| N#CC1(C#N)C2C=CC(C3CC=CC32)C1(C#N)C#N (centres undefined) | 10.4 µM (inactive) | 5.16 µM (inactive) | 10.9 µM (inactive) | 2 µM (inactive) |  | 2.01 µM (inactive) | > 10 µM (inactive) | 9.79 µM (inactive) | 10.4 µM (inactive) | 7.16 µM (inactive) | 2.35 µM (inactive) | 1.98 | 12.9 µM (inactive) | 9.33 µM (inactive) | 45 µM (inactive) | 2.29 µM (inactive) | 1.12 µM (inactive) | 8.59 µM (inactive) | 2.08 µM (inactive) |
| NCCCCN(CCCN)C(=O)c1ccccc1 | > 100 µM (inactive) | > 100 µM (inactive) | > 100 µM (inactive) | > 100 µM (inactive) | > 100 µM (inactive) | > 100 µM (inactive) | > 100 µM (inactive) | > 100 µM (inactive) | > 100 µM (inactive) | > 100 µM (inactive) | > 100 µM (inactive) | > 100 | > 100 µM (inactive) | > 100 µM (inactive) | > 100 µM (inactive) |  | > 100 µM (inactive) |  | > 100 µM (inactive) |
